Source: ChEMBL document CHEMBL1152117, “A versatile synthesis of 2-methoxyestradiol, an endogenous metabolite of estradiol which inhibits tubulin polymerization by binding to the colchicine binding site” (Bioorg Med Chem Lett, 1994)
Active and inactive are the calls of the source. The calls are words filed in the database; no cut-off is given here.

How the values were obtained:
[1] = tested on: Mus musculus; experiment: In vivo inhibition of growth of solid tumors when administered orally in mice; Active; type: functional, organism-based
[2] = tested on: Mus musculus; experiment: In vivo inhibition of neovascularization of solid tumors when administered orally in mice; Active; type: functional, organism-based

Q: What does the source list for COc1cc2c(cc1O)CC[C@@H]1[C@@H]2CC[C@]2(C)[C@@H](O)CC[C@@H]12?
A: Activity [1]: Active; Activity [2]: Active
